What all share (type): cell-based, human
The test system of experiment [1] is H1299 cells. As to the kind of experiment: β-gal expression by X-gal staining after Ad/CMV/β-gal infection of agent-treated cells. The procedure: (§1) Gene Delivery Protocol: In vitro gene delivery was performed by incubating cells in six-well plates (Falcon Plastics, Lincoln Park, N.J.) for two hours with Adv/CMV/β-gal in appropriate medium supplemented with 2% FCS. The multiplicity of infection (MOI: number of viral particles per target cell) was based on cell counts of untreated wells. Fresh, complete medium with the appropriate concentration of FCS was then added to the wells at the end of the infection period and cells were then incubated for 20 hours at 37° C., 5% CO2. After washing the cells with ice cold PBS, the cells were fixed with ice-cold 1.25% glutaraldehyde and stained with X-gal (5-bromo-4-chloro-3-indolyl-β-d-galactoside; Gibco BRL) as previously described (MacGregor et al., 1987). The transduction efficiency by Adv/CMV/β-gal was determined by the percentage of positive stained cells (blue) for β-galactosidase activity (1000 cells counted per well).
Time Course and Dose Response: To determine the time course of enhancement, H1299 and H460 cells were seeded in 6-well plates (2×10^5 cells/2 mls/well). After an overnight incubation period (37° C., 5% CO2), the initial medium was replaced with freshly prepared media (2 ml) containing 0.062 μg/ml CDDP (Sigma Chemicals, St. Louis, Mo.) (CDDP was prepared fresh by dissolving in distilled water) and the cells were then incubated for 24 hours at 37° C., with 5% CO2. CDDP-treated cells were then washed twice with PBS and subsequently infected with Ad/CMV/β-gal (MOI=1 for H1299 and MOI=5 for H460) on days 0, 1, 2, 3, 4, 5 or 6 following CDDP removal, to determine the time point at which maximal enhancement of expression was occurring. To establish the dose of CDDP needed to produce maximum enhancement, the cells were treated with different concentrations of CDDP (serial, 1:4 dilutions, ranging from 4 μg/ml to 0.0002 μg/ml, 5 ml per 60 mm dish) for 24 hours and subsequently incubated with Ad/CMV/β-gal 48 hours after removal of CDDP. To study if exposure of malignant cells to different classes of antineoplastic agents would lead to a similar elevation of gene expression, H1299 cells were treated with vincristine (Eli Lilly and Co, Indianapolis, Ind.), methotrexate (Lederle Pharmaceuticals, Pearl River, N.Y.), 5-fluorouracil (SoloPak Laboratories, Elk Grove Village, Ill.), epotoside (Bristol Laboratories, Princeton, N.J.) and transplatin (the isomer of CDDP that has no anticancer activity, Sigma Chemical, St. Louis, Mo.) in the similar fashion as CDDP treatment and then infected with Ad/CMV/β-gal 48 hours after removal of drug-containing media. H1299 cells were treated with 2, 4, 8, or 16 Grey (Gy) of ionizing irradiation and then similarly infected 72 hours after irradiation. Untreated cells that were similarly infected, served as controls.

The next experiment has as its system A549. As to the kind of experiment: β-gal expression by X-gal staining after Ad/CMV/β-gal infection of CDDP-treated cells. The note with it: gene transfer 48 hours after exposure to 0.062 μg/ml of CDDP; MOI=10. The procedure:
The human non-small cell lung carcinoma cell lines H1299 and H460 were grown in RPMI-1640 medium supplemented with 5% heat-inactivated fetal calf serum (FCS), 10 mM glutamine, 100 units/ml of penicillin, 100 μg/ml of streptomycin and 0.25 μg/ml of amphotericin B. Human non-small cell lung carcinoma cell lines H358, H226br, and the cervical cancer cell line SiHa were maintained in complete RPMI-1640 medium supplemented with 10% FCS. The cell line A549 (human, non-small cell lung carcinoma) was grown in Ham's F12 nutrient mixture solution (Gibco BRL, Gaithersburg, Md.) similarly supplemented with antibiotics, glutamine and 10% FCS.
as §1, with “After washing the cells with ice cold PBS, the cells were fixed with ice-cold 1.25% glutaraldehyde and stained with X-gal (5-bromo-4-chloro-3-indolyl-β-d-galactoside; Gibco BRL) as previously described (MacGregor et al., 1987).” left out

The subject of experiment [2] is H1299 cells. As to the kind of experiment: In situ TUNEL assay for apoptosis. The note with it: CDDP = prior CDDP treatment, Ad/CMV/p53 = not exposed to CDDP. The procedure:
CDDP-treated or control H1299 cells were fixed in 50% acetone/ethanol for 20 minutes at −20° C. 12 hrs and 24 hrs after transfection with Adv/CMV/p53 (MOI=5). In situ TdT (terminal deoxynucleotidyl transferase)-mediated dUTP-biotin nick end-labeling (TUNEL) assay was performed according to the procedure described elsewhere (Gavrieli et al., 1992). H1299 cells used as positive controls were treated with DNAse I (Gibco BRL, Gaithersburg, Md.), for 1 hr at 37° C. (50 μg/ml in 10 mM Tris-HCI pH=7.5; 140 mM sodium cacodylate, 4 mM MgCl2, 10 mM dithiothreitol).

These results are taken from US6989375B2, “Enhanced expression of transgenes” (priority 1996, dated 2006).

In the case of `N.N.[Cl][Pt][Cl]` [CDDP, cis-dichlorodimminocisplatin], the “CDDP concentration at which maximal enhancement of β-gal gene expression occurred” value in the experiment with H1299 cells [1] (24 h exposure, infected 48 hours after CDDP removal) turned out to be 0.062 µg/mL. In addition, the “Time of gene transfer after drug treatment for maximal enhancement” value with H1299 cells [1] (CDDP 0.062 μg/ml) is reported as “about 48 hours”. For the same compound, the “Enhancement of β-gal gene expression” value in the experiment on H1299 cells [1] (CDDP at 0.0039 and 1 μg/ml, infected 48 hours after CDDP removal) is “also an enhancement”. In addition, the “Enhancement of β-gal expression (FIG. 3)” value with H1299 cells [1] (drugs at 0.062 μg/ml or irradiated with 8 Greys, stained 24 hrs after infection) is “Enhancement of β-gal expression was observed”. The “Magnitude of maximal enhancement of transgene expression (FIG. 4B)” value in the experiment on H1299 cells [1] (gene transfer 48 hours after exposure to 0.062 μg/ml of CDDP) is on record as 2.7 fold; in the experiment with A549, 1.6 fold. Also, the “Apoptosis (TUNEL-positive cells)” value with H1299 cells [2] (12 hrs after Ad/CMV/p53 transfection (MOI=5)) is “much higher frequency than in untreated cells”; with H1299 cells [2] (24 hrs after Ad/CMV/p53 transfection (MOI=5)), “almost all CDDP-treated cells stained positive for DNA fragmentation”.
